Experimental data reported in patent US20070088414A1, “Particulate formulations for intradermal delivery of biologically active agents” (priority 2005, published 2007).

Assays:
[1] = Lymph node penetration assay; conditions: Intradermal injection, liposomes 30 minutes after avidin, nodes harvested 24 hours, sodium salt
Experimental: Avidin was purchased from Sigma, with the concentration at 10 mg/ml. Avidin was hydrated with injectable saline. A 50 μl aliquot, at a dose of 250 μg, was delivered as described.
SRB was purchased from Sigma (Cat.# S9012). SRB was selected for its high solubility, and due to the fact that it is readily visible to the naked eye and has fluorescent properties.
An LUV process was used to make the SRB-liposomes. Two basic formulations were developed—hi and low PE-biotin content. […] The liposome formulation contained the following: DSPC (94.0 mg; 119.0 μmoles); DSPG (10.3 mg; 13.2 μmoles); Chol (50.9 mg; 132.0 μmoles); and Diol Biotin (2.6 mg; 2.64 μmoles). The mixture was brought to about 20 ml with chloroform and methanol at a 10:1 ratio. Organic solvent was removed at 45° C. A thin film on a rotovap flask was hydrated in 18 ml of 0.1M SRB prepared in buffer (1 mM EDTA, 0.2% NaN3, pH=8.0). The lipid dye suspension was then extruded through a series of nucleopore membranes (5.0. 1.0, 0.8, 0.6, 0.4, 0.2, 0.1, 0.05 micron). Approximately 5 ml was saved after the 0.2, 0.1 and 0.05 micron membranes. Each of the 5 ml preps was centrifuged, and pellets washed with osmotically adjusted (physiological 310 mOSM) buffer. After the free SRB was washed away, the final liposome pellets were resuspended in the same buffer to the final volume of 1 ml. […]

[2] = Payload determination, low molecular weight substance (SRB); assay type: physicochemical; conditions: SRB dye encapsulated in liposomes, released with 5% Triton X-100, read at 565 nm
Experimental: To determine the phospholipid concentration of liposomes, 10 μl of each liposome solution was placed in a 16×100 mm glass tube along with 0.4 ml of 10 N sulfuric acid. A set of phosphate standards was prepared from a 0.645 mM stock (Sigma P3869) which was also assayed in glass tubes alongside the liposome samples. Samples, standards and blank tubes were run in duplicate. All tubes were placed in a heating block and digested for 30 minutes at 180° C. Tubes were then removed from the heating block and cooled for 5 minutes before adding 100 μl of 9% hydrogen peroxide. All tubes were then again heated for 30 minutes at 180° C. […] All standards, samples and blanks were read at 820 nm on a spectrophotometer. Using the known standard values, a curve was generated from which phosphate concentration values can be calculated for each of the liposome samples. Phosphate concentration values are expressed as μmoles Pi/mL. […]
Sulfa rhodamine-B sodium salt (“SRB”) was used to determine payload capacity for a low molecular weight substance. […] All samples and standards were then read at 565 nm on a spectrophotometer. SRB dye payload molar concentrations were then calculated from the known standard curve. Using this procedure, the payload for SRB was determined to be about 10.956 nmoles per 50 nmoles of phosphate. […]

[3] = intravenous, 200 uL single tail vein injection
Experimental: IV delivery of free and particulate ICG was administered in a 200 uL volume in a single tail vein injection.

Structure (SMILES)	Visible Aggregation/Accumulation in Axillary Node ([1]; listed as Free SRB liposomes)	Visible Aggregation/Accumulation in Axillary Node [1]	payload for SRB [2]	accumulation across the peritoneal cavity [3]
CCN(CC)c1ccc2c(-c3ccc(S(=O)(=O)[O-])cc3S(=O)(=O)[O-])c3ccc(=[N+](CC)CC)cc-3oc2c1.[Na+] [free SRB, Sulfa rhodamine-B sodium salt]	no SRB color retention in the node	No	about 10.956 nmoles per 50 nmoles of phosphate	
CC1(C)C(/C=C/C=C/C=C/C=C2\N(CCCCS(=O)(=O)O)c3ccc4ccccc4c3C2(C)C)=[N+](CCCCS(=O)(=O)[O-])c2ccc3ccccc3c21 [free cardiogreen, Indocyanine Green]				manifested accumulation across the peritoneal cavity
